Calls of active or inactive are those of the source. No cut-off for these calls is given here.
Columns and labels:
Format in all cases: functional, cell-based
Splenocyte [1] = experiment: Induction of IL4 production in C57BL/6 mouse splenocytes after 48 hrs by cytometric bead array method
Splenocyte [2] = experiment: Induction of IL13 production in C57BL/6 mouse splenocytes after 48 hrs by cytometric bead array method
Splenocyte [3] = experiment: Induction of IFN-gamma production in C57BL/6 mouse splenocytes after 48 hrs by cytometric bead array method
Splenocyte [4] = experiment: Induction of IL10 production in C57BL/6 mouse splenocytes after 48 hrs by cytometric bead array method
Splenocyte [5] = experiment: Induction of IL2 production in C57BL/6 mouse splenocytes after 48 hrs by cytometric bead array method

Row | SMILES | Activity (Splenocyte [1]) | Activity (Splenocyte [2]) | Activity (Splenocyte [3]) | Activity (Splenocyte [4]) | Activity (Splenocyte [5])
1 | CCCCCCCCCCCCCCCCCCCCCCCCCC(=O)N1[C@@H](CCCCCCCCCCCCC)C[C@@H](O)[C@@H]1CO[C@H]1O[C@H](CO)[C@H](O)[C@H](O)[C@H]1O | inactive | inactive | inactive | inactive | inactive
2 | CCCCCCCCCCCCCCCCCCCCCCCCCC(=O)N1[C@H](CCCCCCCCCCCCCC)[C@@H](O)[C@@H]1CO[C@H]1O[C@H](CO)[C@H](O)[C@H](O)[C@H]1O | inactive | inactive | inactive | inactive | inactive
3 | CCCCCCCCCCCCCCCCCCCCCCCCCC(=O)N1[C@@H](CCCCCCCCCCCCC)C[C@@H](O)[C@@H]1CO[C@@H]1O[C@H](CO)[C@H](O)[C@H](O)[C@H]1O | inactive | inactive | inactive | inactive | inactive
4 | CCCCCCCCCCCCCCCCCCCCCCCCCC(=O)N1[C@H](CCCCCCCCCCCCC)C[C@@H](O)[C@@H]1CO[C@@H]1O[C@H](CO)[C@H](O)[C@H](O)[C@H]1O | inactive | inactive | inactive | inactive | inactive
5 | CCCCCCCCCCCCCCCCCCCCCCCCCC(=O)N1[C@@H](CCCCCCCCCCCCCC)[C@@H](O)[C@@H]1CO[C@@H]1O[C@H](CO)[C@H](O)[C@H](O)[C@H]1O | inactive | inactive | inactive | inactive | inactive
6 | CCCCCCCCCCCCCCCCCCCCCCCCCC(=O)N1[C@H](CCCCCCCCCCCCC)C[C@@H](O)[C@@H]1CO[C@H]1O[C@H](CO)[C@H](O)[C@H](O)[C@H]1O | Active | Active | Active | Active | Active
7 | CCCCCCCCCCCCCCCCCCCCCCCCCC(=O)N1[C@@H](CCCCCCCCCCCCCC)[C@@H](O)[C@@H]1CO[C@H]1O[C@H](CO)[C@H](O)[C@H](O)[C@H]1O | Active | Active | Active | Active | Active
8 | CCCCCCCCCCCCCCCCCCCCCCCCCC(=O)N1[C@H](CCCCCCCCCCCCCC)[C@@H](O)[C@@H]1CO[C@@H]1O[C@H](CO)[C@H](O)[C@H](O)[C@H]1O | inactive | inactive | inactive | inactive | inactive

Reference: ChEMBL document CHEMBL1143140, “RCAI-8, 9, 18, 19, and 49-52, conformationally restricted analogues of KRN7000 with an azetidine or a pyrrolidine ring: Their synthesis and bioactivity for mouse natural killer T cells to produce cytokines” (Bioorg Med Chem, 2008)
